Several values for one entry are separate records, joined by “and”; a condition that tells them apart may be missing. Identical values can stand only once.

For series [1], the target named is T1, glutamate cysteine ligase (GCL, EC 6.3.2.2) (Homo sapiens, UniProt P48506).
T1 sequence (P48506 1-637): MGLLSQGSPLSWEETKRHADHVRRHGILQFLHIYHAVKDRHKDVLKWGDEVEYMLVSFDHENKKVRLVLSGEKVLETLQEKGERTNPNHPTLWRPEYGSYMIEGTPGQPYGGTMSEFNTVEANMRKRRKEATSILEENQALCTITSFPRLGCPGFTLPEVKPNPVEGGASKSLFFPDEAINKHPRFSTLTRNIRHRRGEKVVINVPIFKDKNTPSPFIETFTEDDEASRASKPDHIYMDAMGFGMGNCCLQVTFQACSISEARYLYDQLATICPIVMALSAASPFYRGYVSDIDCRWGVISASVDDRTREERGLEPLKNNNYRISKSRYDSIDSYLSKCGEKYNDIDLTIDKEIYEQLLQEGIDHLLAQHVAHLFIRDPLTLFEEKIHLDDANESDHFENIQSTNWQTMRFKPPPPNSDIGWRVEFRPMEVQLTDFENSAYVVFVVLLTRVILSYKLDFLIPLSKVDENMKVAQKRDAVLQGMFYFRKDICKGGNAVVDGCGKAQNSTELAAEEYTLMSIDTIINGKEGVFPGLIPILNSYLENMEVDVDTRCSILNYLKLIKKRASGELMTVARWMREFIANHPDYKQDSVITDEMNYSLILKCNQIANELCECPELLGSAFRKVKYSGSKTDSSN
T1 sequence (P48507 1-274 partner): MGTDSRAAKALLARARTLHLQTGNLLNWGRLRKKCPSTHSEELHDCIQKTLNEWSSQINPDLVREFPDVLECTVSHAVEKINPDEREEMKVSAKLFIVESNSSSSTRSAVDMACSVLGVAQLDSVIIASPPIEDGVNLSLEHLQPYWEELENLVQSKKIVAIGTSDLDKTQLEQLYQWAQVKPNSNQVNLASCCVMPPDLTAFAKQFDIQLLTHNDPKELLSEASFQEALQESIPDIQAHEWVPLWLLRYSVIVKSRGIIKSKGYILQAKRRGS
To be noted: cited from earlier work.

Series [2] is described as follows: NACA in aqueous humor after topical ocular administration. Type of series: in vivo. To be noted: rabbit eyes, 1% topical ocular. How it is done:
The thiol moiety of NAC, NACA, diNACA and their respective internal standards oxidizes quickly in plasma through formation of disulfides. In order to determine total NAC and total NACA levels in plasma, tris(2-carboxyethyl)phosphine (TCEP) is added during the extraction to reduce disulfide bonds (King et al., 2019). Ammonium bicarbonate is added to control sample pH near neutral, as TCEP will otherwise acidify the aliquoted samples and hinder derivatization. The free analyte is then derivatized to a stable thioether using 2-chloro-1-methylpyridinium iodide (CMPI). N-acetyl-L-cysteine is used as the reference standard. The assay would not discern the enantiomer, N-acetyl-D-cysteine, if present. A sample volume of 25.0 μL is aliquoted into a 1.2 mL 96-well plate to which is added, in sequence, 25.0 μL internal standard solution (1000 ng/mL NAC-D3 and 1000 ng/mL NACA-D3 in water), 50.0 μL of ammonium bicarbonate (100 mM), 5.0 μL CMPI (60 mM in water), and 5.0 μL of TCEP (60 mM in water). Samples are allowed to react for 30 minutes. To precipitate proteins, 500 μL of acetonitrile is then added to all samples. The plate is covered and the mixtures are shaken and centrifuged. […]
Samples were analyzed on a Waters Acquity liquid chromatograph interfaced with a Thermo Scientific TSQ Vantage triple quadrupole mass spectrometer with ESI ionization (King et al., 2019). […]

Series [3] has as its system human cystinotic fibroblasts (GM00008). In words: Cytotoxicity (MTT cell viability) in cystinotic fibroblast cell culture. To be noted: for increase of human cystinotic cell viability compared to cysteamine at the same concentration: 25 μM; for cell viability (cytotoxicity) versus no treatment: 25, 50 or 75 μM, 48 and 72 hours (FIGS. 1 and 2), MTT. Type of series: cell-based. As to the method:
Appropriate concentrations of the NACA and diNACA were selected and incubated along with human cystinotic fibroblasts in media. […] Media was then removed, and cells were incubated in 0.5mg/ml MTT (3-(4,5-dimethylthiazol-2-yl)-2,5-diphenyltetrazolium bromide) reconstituted in media. A colorimetric assay used reduction of the yellow tetrazolium salt (MTT) to a purple formazan salt in order to measure cellular metabolic activity as a proxy for cell viability. Treated cells were incubated in MTT for 4 hours at 37° C., after which time intracellular purple formazan salt crystals were visible under a microscope. MTT solution was then removed, and DMSO was added to each well in order to lyse cells and dissolve the salt crystals. After 1 hour incubation at 37° C., absorbance was measured on a multiwell plate reader (Biotek FL6000) at 570 nm, and percentage cell viability calculated.

For series [4], the system named is rabbit eyes. Put plainly: Ophthalmic tolerability, daily Draize scores after topical ocular administration. Type of series: in vivo. To be noted: rabbits, 1% in prototype vehicle, per animal and eye; for Daily Draize Scores for Chemosis, Day 1 / Daily Draize Scores for Discharge, Day 1 / Daily Draize Scores for Hyperemia, Day 1 / Daily Draize Scores for Chemosis, Day 2 / Daily Draize Scores for Discharge, Day 2 / Daily Draize Scores for Hyperemia, Day 2 / Daily Draize Scores for Chemosis, Day 3 / Daily Draize Scores for Discharge, Day 3 / Daily Draize Scores for Hyperemia, Day 3 / Daily Draize Scores for Chemosis, Day 4 / Daily Draize Scores for Discharge, Day 4 / Daily Draize Scores for Hyperemia, Day 4 / Daily Draize Scores for Chemosis, Day 5 / Daily Draize Scores for Discharge, Day 5 / Daily Draize Scores for Hyperemia, Day 5 / Daily Draize Scores for Chemosis, Day 6 / Daily Draize Scores for Discharge, Day 6 / Daily Draize Scores for Hyperemia, Day 6: bilateral topical four times a day; for Daily Draize Scores for Chemosis, Day 7 / Daily Draize Scores for Discharge, Day 7 / Daily Draize Scores for Hyperemia, Day 7 / Daily Draize Scores for Chemosis, Day B / Daily Draize Scores for Discharge, Day B / Daily Draize Scores for Hyperemia, Day B: bilateral topical; for Daily Draize Scores for Chemosis, Day 7 / Daily Draize Scores for Discharge, Day 7 / Daily Draize Scores for Hyperemia, Day 7: once on Day 7; for Daily Draize Scores for Chemosis, Day B / Daily Draize Scores for Discharge, Day B / Daily Draize Scores for Hyperemia, Day B: (baseline). How it is done: To simulate topical ocular exposure to an ophthalmic insert containing AGENT, prototype ophthalmic formulations were prepared containing either 1% NPI-001, 1% diNACA, 1% NAC or vehicle and tested to evaluate ocular tolerability. Three rabbits per group were administered 1% NPI-001, 1% di-NAC, 1% NAC in a prototype vehicle, via bilateral topical administration four times a day for 6 days, and once on Day 7.

Series [5] relates to human cystinotic fibroblasts (GM00008). Put plainly: Screening of cystine-depleting activity in human cystinotic cell-based model. Conditions: 50 μM. How it is done:
A specialized in vitro human cystinotic cell-based model was used for determining cystine content (Omran et al., 2011c). […]
The cells were recovered from storage at −80° C. and suspended in 100 μl […] N-ethyl malimide prepared in phosphate buffer (pH 7.6) followed by sonication for 10 seconds which was repeated 3 times with 20 second cooling intervals on ice. The solution was centrifuged at 800 G for 10 min at 4° C. (Biofuge primo R Heraeus centrifuge). To this cell supernatant (40 μl) was added 4 μl of 4M NaBH4 in 7:3 0.1 M NaOH/DMSO. After 5 min incubation at room temperature, 800 μl of sodium acetate buffer (pH 4.7) was added. A 5 μl volume of the diluted solution was added to 100 μl of 0.6mg/ml solution of Papain-SSCH3 in a 96 well plate and incubated for one hour at room temperature. A 100 μl volume of 4.9 mM L-benzoylarginine p-nitroanilide (L-BAPNA) solution in sodium acetate buffer (pH 4.0) was added to each well of the 96 well plate, gently mixed and incubated for further one hour at room temperature. Absorption at 410 nm was measured and the cysteine levels were calculated by comparison to known cysteine standard.
The protein concentration in every sample was measured according to Bradford method. Briefly, 200 μl of Bradford reagent was added to 5 μl of cell supernatant in each well of a 96 well plate and incubated for 5 minutes at room temperature and the absorption at 595 nm was measured. The protein concentration was calculated using a range of concentrations of bovine serum albumin as a standard. The cysteine levels were determined following normalization to μM cysteine per mg of protein.

In general, Km refers to the concentration of substrate that gives half-maximal velocity. Turning to `N[C@@H](CS)C(=O)O` [cysteine, L-cysteine], the Km in series [1] is 100 to 300 µM.

Take `CC(=O)NC(CSSCC(NC(C)=O)C(N)=O)C(N)=O` [diNACA, (2R,2R′)-3,3′-disulfanediyl bis(2-acetamidopropanamide)]: the “NACA in aqueous humor” value in series [2] is “detectable”. The “increase of human cystinotic cell viability compared to cysteamine at the same concentration” value in series [3] (48 hours (FIG. 1)) was “statistically superior to cysteamine”. Besides, the “increase of human cystinotic cell viability compared to cysteamine at the same concentration” value in series [3] (72 hours (FIG. 2)) is given as “statistically superior to cysteamine”. Also, the “cell viability (cytotoxicity) versus no treatment” value in series [3] is on record as “increased cell viability”. In series [4], the “Daily Draize Scores for Chemosis, Day 1” value is on record as 0; the “Daily Draize Scores for Discharge, Day 1” value stood at 0; the “Daily Draize Scores for Hyperemia, Day 1” value was found to be 0; the “Daily Draize Scores for Chemosis, Day 2” value was determined as 0. Besides, in series [4], the “Daily Draize Scores for Discharge, Day 2” value worked out at 0; the “Daily Draize Scores for Hyperemia, Day 2” value is listed as 0; the “Daily Draize Scores for Chemosis, Day 3” value is reported as 0; the “Daily Draize Scores for Discharge, Day 3” value is reported as 0. Besides, in series [4], the “Daily Draize Scores for Hyperemia, Day 3” value is on record as 0; the “Daily Draize Scores for Chemosis, Day 4” value stood at 0; the “Daily Draize Scores for Discharge, Day 4” value is 0 (3×) and 1 (2×) and 0.5; the “Daily Draize Scores for Hyperemia, Day 4” value is on record as 0. Also, in series [4], the “Daily Draize Scores for Chemosis, Day 5” value was found to be 0; the “Daily Draize Scores for Discharge, Day 5” value was 0; the “Daily Draize Scores for Hyperemia, Day 5” value was 0; the “Daily Draize Scores for Chemosis, Day 6” value is given as 0. Further, in series [4], the “Daily Draize Scores for Discharge, Day 6” value was 0 (4×) and 0.5 (2×); the “Daily Draize Scores for Hyperemia, Day 6” value was found to be 0; the “Daily Draize Scores for Chemosis, Day 7” value came to 0; the “Daily Draize Scores for Discharge, Day 7” value was 0 (5×) and 0.5. In series [4], the “Daily Draize Scores for Hyperemia, Day 7” value turned out to be 0; the “Daily Draize Scores for Chemosis, Day B” value is reported as 0; the “Daily Draize Scores for Discharge, Day B” value came out at 0; the “Daily Draize Scores for Hyperemia, Day B” value was 0. Further, the “relative cystine concentration as percent of control, comparison with cysteamine” value in series [5] (6 hours (FIG. 3)) is recorded as “statistically superior to cysteamine”. The “relative cystine concentration as percent of control, comparison with cysteamine” value in series [5] (24 hours (FIG. 4)) is given as “superior to cysteamine”. In series [5] (48 hours (FIG. 5)), the “relative cystine concentration as percent of control, comparison with cysteamine” value is given as “statistically superior to cysteamine”. Further, the “depletion of cystine compared to control” value in series [5] (72 hours (FIG. 6)) is on record as 20%.

As a reminder, the Ki is a measure of affinity in units of concentration, obtained from inhibition or displacement. In the case of `N[C@@H](CCC(=O)N[C@@H](CS)C(=O)NCC(=O)O)C(=O)O` [GSH, c-L-glutamyl-L-cysteinyl-glycine], the Ki in series [1] (read-out: Ki, nonallosteric competitive inhibition of GCL) is 2300 µM.

Take `CC(=O)NC(CS)C(N)=O` (centres unmarked): the “NACA in aqueous humor” value in series [2] was “detectable”. Also, in series [3], the “cell viability (cytotoxicity) versus no treatment” value was “increased cell viability”. Also, in series [3] (all concentrations (25, 50, 75 μM), 72 hours (FIG. 2)), the “increase of human cystinotic cell viability compared to cysteamine at the same concentrations” value is recorded as “statistically superior to cysteamine”. Further, in series [4], the “Daily Draize Scores for Chemosis, Day 1” value is on record as 0; the “Daily Draize Scores for Discharge, Day 1” value was 0; the “Daily Draize Scores for Hyperemia, Day 1” value came to 0; the “Daily Draize Scores for Chemosis, Day 2” value was 0. In addition, in series [4], the “Daily Draize Scores for Discharge, Day 2” value was found to be 0; the “Daily Draize Scores for Hyperemia, Day 2” value came out at 0; the “Daily Draize Scores for Chemosis, Day 3” value is on record as 0; the “Daily Draize Scores for Discharge, Day 3” value is given as 0. Further, in series [4], the “Daily Draize Scores for Hyperemia, Day 3” value is given as 0; the “Daily Draize Scores for Chemosis, Day 4” value was determined as 0; the “Daily Draize Scores for Discharge, Day 4” value came out at 0; the “Daily Draize Scores for Hyperemia, Day 4” value was determined as 0. In addition, in series [4], the “Daily Draize Scores for Chemosis, Day 5” value is given as 0; the “Daily Draize Scores for Discharge, Day 5” value came out at 0; the “Daily Draize Scores for Hyperemia, Day 5” value turned out to be 0; the “Daily Draize Scores for Chemosis, Day 6” value was found to be 0. For the same molecule, in series [4], the “Daily Draize Scores for Hyperemia, Day 6” value was determined as 0; the “Daily Draize Scores for Chemosis, Day 7” value came out at 0; the “Daily Draize Scores for Hyperemia, Day 7” value is given as 0; the “Daily Draize Scores for Chemosis, Day B” value came to 0. In series [4], the “Daily Draize Scores for Discharge, Day B” value is on record as 0 and the “Daily Draize Scores for Hyperemia, Day B” value is listed as 0. In series [4] (listed as NPI-001), the “Daily Draize Scores for Discharge, Day 6” value was 0.5 and 0 (5×); the “Daily Draize Scores for Discharge, Day 7” value was 0 (4×) and 0.5 (2×). Further, the “relative cystine concentration as percent of control, comparison with cysteamine” value in series [5] (6 hours (FIG. 3)) is on record as “statistically superior to cysteamine”. Besides, in series [5] (24 hours (FIG. 4)), the “relative cystine concentration as percent of control, comparison with cysteamine” value is on record as “statistically superior”. Further, the “relative cystine concentration as percent of control, comparison with cysteamine” value in series [5] (48 hours (FIG. 5)) is listed as “statistically superior to cysteamine”. In addition, the “relative cystine concentration as percent of control, comparison with cysteamine” value in series [5] (72 hours (FIG. 6)) is listed as “superior to cysteamine”.
